Data as given in US4369312A, “Method of producing oxo-containing azetidinone compounds” (Fujisawa Pharmaceutical Co., Ltd., priority 1980, dated 1983).
Values after ≈ are worked out from the molar mass of the structure shown. Where two headings read alike, the source gives them in different places.

Legend:
Experiment in all cases: In vitro antimicrobial activity, two-fold agar-plate dilution method (MIC)
Format in all cases: cell-based
Escherichia coli 31 = details: HI-agar, 37° C., 20 hours
Protocol: (§1) In vitro Antimicrobial activity was determined by the two-fold agar-plate dilution method as described below.
(§2) One loopful of an overnight culture of each test strain in Tripticase-soy broth (approximately 10^8 viable cells per ml) was streaked on heart infusion agar (HI-agar) containing graded concentrations of antimicrobial agents, and the minimal inhibitory concentration (MIC) was expressed in term of μg/ml after incubation at 37° C. for 20 hours.

[1] = tested on: Staphylococcus aureus 209P JC-1; details: HI-agar, 37° C., 20 hours
Protocol: as §1, §2

[2] = tested on: Bacillus subtilis ATCC 6633; details: 37° C., 20 hours
Protocol: as §1, §2

[3] = ATCC6633, HI-agar, read-out: MIC

Row | Structure (SMILES) | MIC (Escherichia coli 31) | MIC [1] | MIC ([2]; HI-agar) | MIC (Escherichia coli 31; read-out: MIC) | MIC ([1]; read-out: MIC) | MIC [2, 3]
1 | CC(=O)OCC1=C(C(=O)OC(c2ccccc2)c2ccccc2)N2C(=O)C(=O)C2SC1 (stereo not drawn) [Example 2(3), benzhydryl 7-oxocephalosporanate] | 1.56 µg/mL (≈ 3.57 µM) | 3.13 µg/mL (≈ 7.15 µM) | 0.78 µg/mL (≈ 1.78 µM) | – | – | –
2 | Cn1nnnc1SCC1=C(C(=O)O)N2C(=O)[C@@H](N(O)C(=O)Cc3cccs3)[C@H]2SC1 [Test compound 3, 7-[N-Hydroxy-2-(2-thienyl)acetamido]-3-(1-methyl-1H-tetrazol-5-ylthiomethyl)-3-cephem-4-carboxylic acid] | – | – | – | 6.25 µg/mL (≈ 13.3 µM) | 6.25 µg/mL (≈ 13.3 µM) | 3.13 µg/mL (≈ 6.68 µM)
3 | CON(C(=O)Cc1cccs1)[C@@H]1C(=O)N2C(C(=O)O)=C(COC(C)=O)CS[C@H]12 [Test compound 1, Sodium 7-[N-methoxy-2-(2-thienyl)acetamido]cephalosporanate] | – | – | – | 6.25 µg/mL | 6.25 µg/mL | 0.78 µg/mL
